Measured values: patent US12503438B2, “Compounds for the treatment of kinase-dependent disorders” (Exelixis, Inc., priority 2019, dated 2025)
pIC50: −log10 of the molar value.

Tests used:
Met = Met (Homo sapiens, UniProt P08581); test: Met autophosphorylation ELISA in PC-3 cells; assay type: cell-based; design: endogenous in cells; host or cells: PC-3 prostate cancer cells (ATCC #CRL-1435); conditions: cellular activity, HGF-stimulated, phospho-Met ELISA, read-out: c-Met IC50
Protocol: PC-3 prostate cancer cells (ATCC #CRL-1435) were seeded at 4×10^4 cells/well onto 24-well plates (Greiner #662165), in DMEM (Thermo Fisher #11995-040) containing 10% FBS (Thermo Fisher #26140-079), 1% MEM NEAA (Thermo Fisher #11140-050), 1% GlutaMax (Thermo Fisher #35050-061), and 1% Penicillin Streptomycin (Thermo Fisher #15140-122). PC-3 cells were incubated at 37° C., 5% CO2 for 24 h and then starved for 3 h in serum-free medium. Test compounds were serially diluted to produce an 8-point dose curve in fresh serum-free medium to a final concentration of 0.3% DMSO (vehicle) and added to the cells and incubated for 1 h. Cells were then stimulated with 100 ng/mL recombinant human HGF (R&D Systems #294-HG-250) for 10 min, washed with cold PBS and immediately lysed with 130 μL of cold 1× lysis buffer [20 mM Tris, 137 mM sodium chloride, 2 mM EDTA, 10% glycerol, 1% NP-40 alternative, 1 mM activated sodium orthovanadate, 1 mM PefaBloc SC (Sigma-Aldrich #11429868001), protease/phosphatase inhibitor tablet (Thermo Fisher #A32959)]. Lysates were clarified by centrifugation and 100 μL/well added into the PathScan phospho-Met (panTyr) Sandwich ELISA (Cell Signaling Technology #7333). Assay was performed according to manufacturer's instructions. Positive control wells (100% activity) contained HGF-stimulated, DMSO-treated cell lysates. Negative control wells (0% activity) contained HGF-stimulated, reference inhibitor-treated cell lysates. IC50 values were calculated by nonlinear regression analysis using a 4-parameter logistic curve fit in ActivityBase XE (IDBS).

Mer = target: T1, Mer (Homo sapiens, UniProt Q12866); test: Mer autophosphorylation ELISA in transient transfected 293A cells; assay type: cell-based; conditions: cellular activity; MERTK-transfected 293A cells, phospho-Mer ELISA
T1 construct: host or cells: 293A cells (Thermo Fisher #R70507)
T1 sequence (Q12866 21-999): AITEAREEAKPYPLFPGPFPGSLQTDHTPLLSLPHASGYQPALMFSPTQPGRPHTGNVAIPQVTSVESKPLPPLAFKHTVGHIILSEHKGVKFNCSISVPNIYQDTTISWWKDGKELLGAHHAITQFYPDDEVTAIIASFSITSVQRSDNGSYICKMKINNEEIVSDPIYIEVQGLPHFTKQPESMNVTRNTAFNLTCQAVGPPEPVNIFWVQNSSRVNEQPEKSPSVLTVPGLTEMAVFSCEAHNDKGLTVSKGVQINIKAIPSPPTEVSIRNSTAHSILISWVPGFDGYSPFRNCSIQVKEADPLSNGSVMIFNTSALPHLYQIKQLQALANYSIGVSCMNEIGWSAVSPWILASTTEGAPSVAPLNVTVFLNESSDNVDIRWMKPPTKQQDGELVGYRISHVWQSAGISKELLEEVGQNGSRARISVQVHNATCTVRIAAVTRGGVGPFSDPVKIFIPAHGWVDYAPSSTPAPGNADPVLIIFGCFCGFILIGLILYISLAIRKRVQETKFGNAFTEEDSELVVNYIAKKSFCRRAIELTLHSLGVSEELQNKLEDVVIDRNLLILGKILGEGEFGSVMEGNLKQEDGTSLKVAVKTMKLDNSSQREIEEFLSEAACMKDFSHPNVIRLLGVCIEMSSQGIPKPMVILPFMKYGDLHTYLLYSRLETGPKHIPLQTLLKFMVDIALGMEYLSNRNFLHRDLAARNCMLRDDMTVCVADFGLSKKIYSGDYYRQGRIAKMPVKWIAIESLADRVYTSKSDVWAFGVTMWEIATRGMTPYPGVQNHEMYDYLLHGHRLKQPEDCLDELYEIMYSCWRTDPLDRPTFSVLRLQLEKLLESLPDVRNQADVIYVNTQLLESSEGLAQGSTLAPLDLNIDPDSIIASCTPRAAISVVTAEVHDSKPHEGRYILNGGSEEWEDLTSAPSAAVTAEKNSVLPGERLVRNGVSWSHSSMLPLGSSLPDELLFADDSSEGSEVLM
Protocol: 293A cells (Thermo Fisher #R70507) were seeded at 1.5×10^6 cells/well onto 100 mm dish (Greiner #664169), in DMEM (Thermo Fisher #11995-040) containing 10% FBS (Thermo Fisher #26140-079), 1% MEM NEAA (Thermo Fisher #11140-050), 1% GlutaMax (Thermo Fisher #35050-061), and 1% Penicillin Streptomycin (Thermo Fisher #15140-122). 293A cells were incubated at 37° C., 5% CO2 for 24 h and then transfected with 6 μg MERTK DNA (Genecopoeia #EX-Z8208-M02) using TransIT LT1 transfection reagent (Mirus-Bio #MIR2305). After 24 h incubation, the transfected 293A cells were seeded at 1×10^5 cells/well onto 96-well plates (Corning #3904) in DMEM growth medium overnight. Test compounds were serially diluted to produce an 8-point dose curve in fresh serum-free medium to a final concentration of 0.3% DMSO (vehicle) and added to the cells and incubated for 1 h. Cells were then immediately lysed with 150 μL of cold 1× lysis buffer [20 mM Tris, 137 mM sodium chloride, 2 mM EDTA, 10% glycerol, 1% NP-40 alternative, 1 mM activated sodium orthovanadate, 1 mM PefaBloc SC (Sigma-Aldrich #11429868001), protease/phosphatase inhibitor tablet (Thermo Fisher #A32959)]. Lysates were clarified by centrifugation and 50 μL/well added into the human phospho-Mer DuoSet IC ELISA (R&D Systems #DYC2579-2). Assay was performed according to manufacturer's instructions and sample phospho-Mer concentrations were extrapolated using human phospho-Mer control (R&D Systems #841793) as a standard. Positive control wells (100% activity) contained DMSO-treated cell lysates. Negative control wells (0% activity) contained reference inhibitor-treated cell lysates. IC50 values were calculated by nonlinear regression analysis using a 4-parameter logistic curve fit in ActivityBase XE (IDBS).

Chain of Met (P08581 25-1390): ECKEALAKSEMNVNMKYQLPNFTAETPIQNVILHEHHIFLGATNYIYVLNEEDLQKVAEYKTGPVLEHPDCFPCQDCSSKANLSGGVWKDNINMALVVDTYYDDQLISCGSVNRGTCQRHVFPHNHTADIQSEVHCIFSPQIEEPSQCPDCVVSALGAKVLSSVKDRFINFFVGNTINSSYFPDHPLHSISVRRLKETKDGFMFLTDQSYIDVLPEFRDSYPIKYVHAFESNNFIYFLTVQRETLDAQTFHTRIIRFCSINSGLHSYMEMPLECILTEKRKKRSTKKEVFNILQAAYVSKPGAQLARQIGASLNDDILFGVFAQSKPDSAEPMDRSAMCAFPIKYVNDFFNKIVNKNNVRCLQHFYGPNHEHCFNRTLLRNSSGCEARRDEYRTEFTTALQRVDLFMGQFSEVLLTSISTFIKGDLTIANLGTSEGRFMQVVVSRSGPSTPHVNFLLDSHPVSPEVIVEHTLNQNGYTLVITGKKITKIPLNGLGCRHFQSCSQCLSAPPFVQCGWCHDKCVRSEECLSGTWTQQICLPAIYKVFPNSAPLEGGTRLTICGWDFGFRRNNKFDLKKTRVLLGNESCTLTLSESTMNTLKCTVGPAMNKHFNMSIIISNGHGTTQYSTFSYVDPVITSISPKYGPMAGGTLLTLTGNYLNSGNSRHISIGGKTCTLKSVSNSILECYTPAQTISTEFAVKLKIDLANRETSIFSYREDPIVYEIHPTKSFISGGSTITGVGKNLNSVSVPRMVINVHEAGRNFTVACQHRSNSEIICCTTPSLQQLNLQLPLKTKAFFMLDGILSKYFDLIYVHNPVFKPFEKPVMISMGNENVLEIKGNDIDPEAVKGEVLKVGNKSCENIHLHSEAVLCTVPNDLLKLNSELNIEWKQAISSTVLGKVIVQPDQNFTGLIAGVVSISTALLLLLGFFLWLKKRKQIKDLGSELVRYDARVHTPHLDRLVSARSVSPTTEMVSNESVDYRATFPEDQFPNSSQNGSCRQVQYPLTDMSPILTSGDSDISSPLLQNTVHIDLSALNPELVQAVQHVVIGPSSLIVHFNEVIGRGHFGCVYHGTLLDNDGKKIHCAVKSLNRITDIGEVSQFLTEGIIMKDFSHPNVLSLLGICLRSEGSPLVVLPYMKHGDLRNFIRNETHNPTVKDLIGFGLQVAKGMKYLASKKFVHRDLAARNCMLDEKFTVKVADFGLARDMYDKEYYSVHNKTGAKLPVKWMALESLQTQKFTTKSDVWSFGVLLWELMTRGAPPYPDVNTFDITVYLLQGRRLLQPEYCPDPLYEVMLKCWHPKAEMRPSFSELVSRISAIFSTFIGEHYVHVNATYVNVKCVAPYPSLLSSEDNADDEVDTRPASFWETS

Which results are given for `COc1cc(-c2ccc3c(Oc4ccc(NC(=O)C5(C(=O)Nc6ccc(F)cc6)CC5)cc4)ccnc3c2)ccn1` [Compound 31, 1-N′-(4-Fluorophenyl)-1-N-[4-[7-(2-methoxypyridin-4-yl)quinolin-4-yl]oxyphenyl]cyclopropane-1,1-dicarboxamide]?
pIC50 (Met): 7.00 to 8.00; pIC50 (Mer): 7.00 to 8.00

How did the pIC50 (Met) turn out when `O=C(Nc1ccc(F)cc1)C1(C(=O)Nc2ccc(Oc3ccnc4cc(-c5cnn(C(F)F)c5)ccc34)c(F)c2)CC1` [Compound 123, 1-N′-[4-[7-[1-(Difluoromethyl)pyrazol-4-yl]quinolin-4-yl]oxy-3-fluorophenyl]-1-N-(4-fluorophenyl)cyclopropane-1,1-dicarboxamide] was run?
Its pIC50 is 7.00 to 8.00.

And the pIC50 (Mer)?
Its pIC50 is 7.00 to 8.00.

With `O=C(Nc1ccc(F)cc1)C1(C(=O)Nc2cc(F)c(Oc3ccnc4cc(-c5cccnc5)ccc34)cc2F)CC1` [Compound 115, 1-N′-[2,5-Difluoro-4-(7-pyridin-3-ylquinolin-4-yl)oxyphenyl]-1-N-(4-fluorophenyl)cyclopropane-1,1-dicarboxamide] as the compound, how does the pIC50 (Met) read?
Its pIC50 is 7.00 to 8.00.

What about the pIC50 (Mer) of the same compound?
Its pIC50 is 7.00 to 8.00.

Which results are given for `Cn1nccc1-c1ccc2c(Oc3ccc(NC(=O)C4(C(=O)Nc5ccc(F)cc5)CC4)cc3)ccnc2c1` [Compound 54, 1-N′-(4-Fluorophenyl)-1-N-[4-[7-(2-methylpyrazol-3-yl)quinolin-4-yl]oxyphenyl]cyclopropane-1,1-dicarboxamide]?
pIC50 (Met): 7.00 to 8.00; pIC50 (Mer): 7.00 to 8.00

How did the pIC50 (Met) turn out when `Cn1cc(-c2ccc3c(Oc4ccc(NC(=O)C5(C(=O)N6CCc7cc(F)ccc76)CC5)cc4)ccnc3c2)cn1` [Compound 81, 1-(5-Fluoro-2,3-dihydroindole-1-carbonyl)-N-[4-[7-(1-methylpyrazol-4-yl)quinolin-4-yl]oxyphenyl]cyclopropane-1-carboxamide] was run?
The pIC50 was 7.00 to 8.00.

And the pIC50 (Mer)?
The pIC50 was 6.52 to 7.00.

`COc1cc2c(Oc3ccc(NC(=O)C4(C(=O)Nc5ccc(F)cc5)CC4)cc3)ccnc2cc1-c1cnn(C)c1` [Compound 76, 1-N′-(4-Fluorophenyl)-1-N-[4-[6-methoxy-7-(1-methylpyrazol-4-yl)quinolin-4-yl]oxyphenyl]cyclopropane-1,1-dicarboxamide] was tested. Which pIC50 (Met) did it give?
The pIC50 was 7.00 to 8.00.

What about the pIC50 (Mer) of the same compound?
The pIC50 was ≥ 8.00.

Which results are given for `O=C(Nc1ccc(F)cc1)C1(C(=O)Nc2ccc(Oc3ccnc4cc(-c5cnn(C(F)F)c5)ccc34)cc2)CC1` [Compound 13, 1-N-[4-[7-[1-(Difluoromethyl)pyrazol-4-yl]quinolin-4-yl]oxyphenyl]-1-N′-(4-fluorophenyl)cyclopropane-1,1-dicarboxamide]?
pIC50 (Met): 7.00 to 8.00; pIC50 (Mer): 7.00 to 8.00

What does the source list for `O=C(Nc1ccc(F)cc1)C1(C(=O)Nc2ccc(Oc3ccnc4cc(-c5ccncc5)ccc34)cc2)CC1` [Compound 26, 1-N′-(4-Fluorophenyl)-1-N-[4-(7-pyridin-4-ylquinolin-4-yl)oxyphenyl]cyclopropane-1,1-dicarboxamide]?
pIC50 (Met): ≥ 8.00; pIC50 (Mer): 7.00 to 8.00

With `O=C(Nc1ccc(F)cc1)C1(C(=O)Nc2ccc(Oc3ccnc4cc(C5CCNC5)ccc34)cc2)CC1` (centres unmarked) [Compound 83, 1-N′-(4-Fluorophenyl)-1-N-[4-(7-pyrrolidin-3-ylquinolin-4-yl)oxyphenyl]cyclopropane-1,1-dicarboxamide] as the compound, how does the pIC50 (Met) read?
Its pIC50 is 7.00 to 8.00.

And the pIC50 (Mer)?
The pIC50 was 6.52 to 7.00.

`CC1Cc2cc(F)ccc2N1C(=O)C1(C(=O)Nc2ccc(Oc3ccnc4cc(-c5cnn(C)c5)ccc34)cc2)CC1` (centres unmarked) [Compound 80, 1-(5-Fluoro-2-methyl-2,3-dihydroindole-1-carbonyl)-N-[4-[7-(1-methylpyrazol-4-yl)quinolin-4-yl]oxyphenyl]cyclopropane-1-carboxamide] was tested. Which pIC50 (Met) did it give?
Its pIC50 is 6.52 to 7.00.

And the pIC50 (Mer)?
Its pIC50 is < 6.52.

`CC(C)n1cc(-c2ccc3c(Oc4ccc(NC(=O)C5(C(=O)Nc6ccc(F)cc6)CC5)cc4)ccnc3c2)cn1` [Compound 21, 1-N′-(4-Fluorophenyl)-1-N-[4-[7-(1-propan-2-ylpyrazol-4-yl)quinolin-4-yl]oxyphenyl]cyclopropane-1,1-dicarboxamide] was tested. Which pIC50 (Met) did it give?
Its pIC50 is 7.00 to 8.00.

And the pIC50 (Mer)?
Its pIC50 is 7.00 to 8.00.

How did the pIC50 (Met) turn out when `O=C(Nc1ccc(F)cc1)C1(C(=O)Nc2ccc(Oc3ccnc4cc(-c5ncc[nH]5)ccc34)cc2)CC1` [Compound 74, 1-N′-(4-Fluorophenyl)-1-N-[4-[7-(1H-imidazol-2-yl)quinolin-4-yl]oxyphenyl]cyclopropane-1,1-dicarboxamide] was run?
Its pIC50 is ≥ 8.00.

And the pIC50 (Mer)?
Its pIC50 is 7.00 to 8.00.

`C[Si](C)(C)C#Cc1ccc2c(Oc3ccc(NC(=O)C4(C(=O)Nc5ccc(F)cc5)CC4)cc3)ccnc2c1` [Compound 63, 1-N′-(4-Fluorophenyl)-1-N-[4-[7-(2-trimethylsilylethynyl)quinolin-4-yl]oxyphenyl]cyclopropane-1,1-dicarboxamide] was tested. Which pIC50 (Met) did it give?
Its pIC50 is < 6.52.

`Cc1noc(C)c1-c1ccc2c(Oc3ccc(NC(=O)C4(C(=O)Nc5ccc(F)cc5)CC4)cc3)ccnc2c1` [Compound 53, 1-N-[4-[7-(3,5-Dimethyl-1,2-oxazol-4-yl)quinolin-4-yl]oxyphenyl]-1-N′-(4-fluorophenyl)cyclopropane-1,1-dicarboxamide] was tested. Which pIC50 (Met) did it give?
Its pIC50 is 6.52 to 7.00.

`CN(C(=O)C1(C(=O)Nc2ccc(Oc3ccnc4cc(-c5cnn(C)c5)ccc34)cc2)CC1)c1ccc(F)cc1` [Compound 82A, 1-N′-(4-Fluorophenyl)-1-N′-methyl-1-N-[4-[7-(1-methylpyrazol-4-yl)quinolin-4-yl]oxyphenyl]cyclopropane-1,1-dicarboxamide] was tested. Which pIC50 (Met) did it give?
The pIC50 was < 6.52.

`C#Cc1ccc2c(Oc3ccc(NC(=O)C4(C(=O)Nc5ccc(F)cc5)CC4)cc3)ccnc2c1` [Compound 64, 1-N-[4-(7-Ethynylquinolin-4-yl)oxyphenyl]-1-N′-(4-fluorophenyl)cyclopropane-1,1-dicarboxamide] was tested. Which pIC50 (Met) did it give?
Its pIC50 is 6.52 to 7.00.

`O=C(Nc1ccc(F)cc1)C1(C(=O)Nc2ccc(Oc3ccnc4cc(-c5cnn[nH]5)ccc34)cc2)CC1` [Compound 65, 1-N′-(4-Fluorophenyl)-1-N-[4-[7-(1H-triazol-5-yl)quinolin-4-yl]oxyphenyl]cyclopropane-1,1-dicarboxamide] was tested. Which pIC50 (Met) did it give?
Its pIC50 is < 6.52.
